# Measured values published in patent US4235923A, “Esters of 3-substituted-2-(aminocarbonyl)oxiranecarboxylic acids as lipogenesis inhibitors” (Shell Oil Company, priority 1979, dated 1980).
# Tested on: lipogenesis in swine adipose tissue
# Assay: inhibition of lipogenesis (incorporation of radioactive glucose carbon into lipid) in slices of swine adipose tissue
# Format: cell-based
# Conditions: 100 micrograms per milliliter, 37° C., 2 hours, glucose-U^14 C, insulin, 5% DMSO, triplicate
# Excerpt: The manner in which they cause this effect is not known with certainty; it is believed that they interfere with the synthesis of fatty acids in the tissues. Their effectiveness for this purpose has been ascertained by immersing samples of swine adipose tissue in a liquid medium containing radioactive glucose and the test chemical, for a period of time, then isolating the lipid from the treated tissue and determining the incorporation of the radioactive carbon into lipid by means of scintillation counting techniques. These tests were conducted in swine adipose tissue because in swine, the primary site of lipogensis--i.e., fatty acid synthesis--appears to be adipose tissue.
# Described in more detail, the tests were conducted according to the following general procedure:
# 150 milligrams of slices of swine adipose tissue were incubated at 37° C. for 2 hours with shaking in 3 milliliters of Krebs-Ringer bicarbonate solution containing one-half the normal calcium ion concentration, 60 micromoles of glucose, 0.5 micro-Curie of glucose-U^14 C, and 300 microunits of insulin, and 5% dimethyl sulfoxide (DMSO). The test compounds were added as suspensions or solutions in DMSO and were present at a concentration of 100 micrograms per milliliter of the incubation mixture.
# The incubation was terminated by addition of 0.25 milliliter of 1 N sulfuric acid. The resulting mixture was extracted with a total of 25 milliliters of chloroform: methanol (2:1 v/v). The extracts were washed according to Folch et al. (J. Biol. Chem., 226, 497-509, (1957)), air dried, and counted in a liquid scintillation counter with 15 milliliters of counting fluid (two parts toluene containing 0.4% w/v New England Nuclear Omnifluor: 1 part Triton X-100). The tests were conducted in triplicate and were accompanied by control tests in which all ingredients,proportions and conditions were the same except that no test compound was included. From the data obtained were calculated the percent inhibition of lipid synthesis by the test compound in each case. The data obtained from the tests are set out in Table 1, as the percent inhibition of lipogenesis compared to the results obtained in the control tests wherein only the test compound was omitted.
row,SMILES,Percent Inhibition (of lipogenesis compared to control) [%]
1,"CCCCCCC1OC1(C(N)=O)C(=O)OCC (stereo not drawn) [Compound 2, Ethyl 2-(aminocarbonyl)-3-hexyloxiranecarboxylate cis]",83

# Same assay, conditions: Sus scrofa, 2 h, 100 micrograms per milliliter, 37° C., glucose-U^14 C, insulin, 5% DMSO, triplicate, read-out: Percent Inhibition (of lipogenesis compared to control)
row,SMILES,inhibition at 100 µg/mL [%]
1,"CCCCCCC1OC1(C(N)=O)C(=O)OCC (stereo not drawn) [Compound 1, Ethyl 2-(aminocarbonyl)-3-hexyloxiranecarboxylate trans]",88
2,"CCOC(=O)C1(C(N)=O)OC1C (stereo not shown) [Compound 3, Ethyl 2-(aminocarbonyl)-3-methyloxiranecarboxylate]",18
3,"CCOC(=O)C1(C(N)=O)OC1C1CCCCC1 (stereo not shown) [Compound 4, Ethyl 2-(Aminocarbonyl)-3-cyclohexyloxiranecarboxylate]",75
4,"CCOC(=O)C1(C(N)=O)OC1c1ccccc1 (stereo not shown) [Compound 5, Ethyl 2-(aminocarbonyl)-3-phenyloxiranecarboxylate]",85
5,CCOC(=O)C1(C(=O)NC)OC1c1ccccc1 (stereo not shown) [Compound 6],27
6,"CC(C)OC(=O)C1(C(N)=O)OC1c1ccccc1 (stereo not shown) [Compound 7, 1-Methylethyl 2-(aminocarbonyl)-3-phenyloxiranecarboxylate]",48
7,"COC(=O)C1(C(N)=O)OC1c1ccccc1 (stereo not shown) [Compound 8, Methyl 2-(aminocarbonyl)-3-phenyloxiranecarboxylate]",47
8,CCOC(=O)C1(C(N)=O)OC1c1ccc(Cl)cc1 (stereo not shown) [Compound 9],65
9,CCOC(=O)C1(C(N)=O)OC1c1ccc(C)cc1 (stereo not shown) [Compound 10],37
10,CCOC(=O)C1(C(N)=O)OC1c1ccc(OC)c(OC)c1 (stereo not shown) [Compound 11],33
11,CCOC(=O)C1(C(N)=O)OC1c1cccc([N+](=O)[O-])c1 (stereo not shown) [Compound 12],76
12,CCOC(=O)C1(C(N)=O)OC1c1ccc(Cl)c(Cl)c1 (stereo not shown) [Compound 13],87
13,CCOC(=O)C1(C(N)=O)OC1c1ccc(OC)cc1 (stereo not shown) [Compound 14],55
14,CCOC(=O)C1(C(N)=O)OC1c1ccc([N+](=O)[O-])cc1 (stereo not shown) [Compound 15],37
15,"CCOC(=O)C1(C(N)=O)OC1C(=O)c1ccccc1 (stereo not shown) [Compound 16, Ethyl 2-(aminocarbonyl)-3-benzoyloxiranecarboxylate]",74
